Results taken from patent US20230091047A1 (priority 2019, published 2023).
Like-named read-outs stand apart in the source and are kept apart here.

Legend:
[1] = test system: HBV (HepG2.117 cell line, inducibly HBV producing); test: Anti-HBV activity: intracellular HBV DNA by real-time PCR in HepG2.117 cells after 3 days of treatment; assay type: cell-based, hepatitis B virus
Experimental: The anti HBV activity was measured using the HepG2.117 cell line, a stable, inducibly HBV producing cell line, which replicates HBV in the absence of doxycycline (Tet-off system). The HepG2 cell line is available from ATCCR under number HB-8065. Transfection of the HepG2 cell line can be as described in Sun and Nassal 2006 Journal of Hepatology 45 (2006) 636-645 “Stable HepG2- and Huh7-based human hepatoma cell lines for efficient regulated expression of infectious hepatitis B virus”.
For the antiviral assay, HBV replication was induced, followed by a treatment with serially diluted compound in 96-well plates. After 3 days of treatment, the antiviral activity was determined by quantification of intracellular HBV DNA using real-time PCR and an HBV specific primer set and probe.

in vitro = assay type: cell-based; settings: human, HepG2 or HepG2.117 cells, ATPlite, mean value
Experimental: Cytotoxicity of the compounds was tested using HepG2 or HepG2.117 cells, incubated for 3 or 4 days in the presence of compounds. The viability of the cells was assessed using the PERKIN ELMER ATPlite Luminescence Assay System.”

[2] = Hepatitis B virus, HepG2.117, 72 h, HepG2.117 cells, 3 days of treatment, intracellular HBV DNA by real-time PCR; mean value; read-out: EC50 (μM, mean value)
[3] = 3-days incubation (unmarked values)
[4] = Hepatitis B virus, HepG2.117, 72 h, HepG2.117 cells, intracellular HBV DNA by real-time PCR, 3 days of treatment, mean value; read-out: EC50 (μM, mean value)
[5] = 3-days incubation (not marked with *)

Q: What does the source list for `CC(Nc1nc2c(c(=O)n1-c1ccc(S(C)(=O)=O)cc1)C[C@@H](C)N(C(=O)c1ccc(Cl)c(Cl)c1)C2)C1CC1` (stereo partly drawn) [Compound C199, (6R)-2-[(1-cyclopropylethyl)amino]-7-(3,4-dichlorobenzoyl)-3-[4-(methanesulfonyl)phenyl]-6-methyl-5,6,7,8-tetrahydropyrido[3,4-d]pyrimidin-4(3H)-one]?
A: EC50 [1, 2]: 0.3 µM; CC50 at 3 days (in vitro; [3]): > 50 µM

Q: With `CC(=O)Nc1ccc(-n2c(N[C@H](C)c3ccc4[nH]ncc4c3)nc3c(c2=O)C[C@@H](C)N(C(=O)c2ccc(Cl)c(Cl)c2)C3)cc1` (single isomer, unassigned) [Compound C462a] as the compound, how does the EC50 [1, 4] read?
A: 1.24 µM

Q: And the CC50 at 3 days (in vitro; [5])?
A: > 50 µM

Q: With `CC(C)Nc1nc2c(c(=O)n1-c1cccc(-n3ccnn3)c1)C[C@@H](C)N(C(=O)c1ccc(Cl)c(Cl)c1)C2` [Compound C442] as the compound, how does the EC50 [1, 4] read?
A: 0.21 µM

Q: And the CC50 at 3 days (in vitro; [5])?
A: > 50 µM

Q: For `CC(C)Nc1nc2c(c(=O)n1-c1ccc(N3CCOCC3)cc1)CCN(C(=O)c1ccc(Cl)c(Cl)c1)C2` [Compound C130, 7-(3,4-dichlorobenzoyl)-3-[4-(morpholin-4-yl)phenyl]-2-[(propan-2-yl)amino]-5,6,7,8-tetrahydropyrido[3,4-d]pyrimidin-4(3H)-one], which EC50 [1, 2] is on record?
A: 0.48 µM

Q: And the CC50 at 3 days (in vitro; [3])?
A: > 50 µM

Q: Which EC50 [1, 2] does the source give for `CC(C)Nc1nc2c(c(=O)n1-c1ccc(S(C)(=O)=O)cc1)CCN(C(=O)c1cc3cc(F)c(F)cc3[nH]1)C2` [Compound C165, 7-(5,6-difluoro-1H-indole-2-carbonyl)-3-[4-(methanesulfonyl)phenyl]-2-[(propan-2-yl)amino]-5,6,7,8-tetrahydropyrido[3,4-d]pyrimidin-4(3H)-one] here?
A: 0.05 µM

Q: And the CC50 at 3 days (in vitro; [3])?
A: > 50 µM

Q: Which EC50 [1, 4] does the source give for `CNC(=O)c1ccc(-n2c(NC(C)C)nc3c(c2=O)C[C@@H](C)N(C(=O)c2ccc(Cl)c(C(F)(F)F)c2)C3)cc1` [Compound C428] here?
A: 0.03 µM

Q: What about the CC50 at 3 days (in vitro; [5]) of the same compound?
A: > 50 µM

Q: What does the source list for `CC(C)Nc1nc2c(c(=O)n1-c1ccc(S(C)(=O)=O)cc1)C[C@H](C)N(C(=O)c1ccc(Cl)c(Cl)c1)C2` [Compound C100B, (6S)-7-(3,4-dichlorobenzoyl)-3-[4-(methanesulfonyl)phenyl]-6-methyl-2-[(propan-2-yl)amino]-5,6,7,8-tetrahydropyrido[3,4-d]pyrimidin-4(3H)-one]?
A: EC50 [1, 2]: 10.1 µM; CC50 at 3 days (in vitro; [3]): > 50 µM

Q: Which results are given for `COc1ccc(CNc2nc3c(c(=O)n2-c2ccccn2)CCN(C(=O)c2ccc(Cl)c(Cl)c2)C3)cc1` [Compound C78, 7-(3,4-dichlorobenzoyl)-2-{[(4-methoxyphenyl)methyl]amino}-3-(pyridin-2-yl)-5,6,7,8-tetrahydropyrido[3,4-d]pyrimidin-4(3H)-one]?
A: EC50 [1, 2]: 2.11 µM; CC50 at 3 days (in vitro; [3]): 41.8 µM

Q: Which results are given for `CNC(=O)c1ccc(-n2c(N[C@@H](C)c3ccc4[nH]cnc4c3)nc3c(c2=O)C[C@@H](C)N(C(=O)c2ccc(Cl)c(Cl)c2)C3)cc1` (single isomer, unassigned) [Compound C647b]?
A: EC50 [1, 4]: > 2.5 µM; CC50 at 3 days (in vitro; [5]): > 50 µM

Q: Which EC50 [1, 4] does the source give for `CNC(=O)c1ccc(-n2c(NCc3csc(C4CC4)n3)nc3c(c2=O)C[C@@H](C)N(C(=O)c2ccc(Cl)c(Cl)c2)C3)cc1` [Compound C490] here?
A: 0.89 µM

Q: What about the CC50 at 3 days (in vitro; [5]) of the same compound?
A: 28.4 µM

Q: For `CNC(=O)c1ccc(-n2c(NCc3ncnn3C)nc3c(c2=O)C[C@@H](C)N(C(=O)c2ccc(Cl)c(Cl)c2)C3)cc1` [Compound C561], which EC50 [1, 4] is on record?
A: > 25 µM

Q: What about the CC50 at 3 days (in vitro; [5]) of the same compound?
A: > 50 µM

Q: What does the source list for `CNC(=O)c1ccc(-n2c(NC3(c4ccccc4)CC3)nc3c(c2=O)C[C@@H](C)N(C(=O)c2ccc(Cl)c(Cl)c2)C3)cc1` [Compound C662]?
A: EC50 [1, 4]: 0.16 µM; CC50 at 3 days (in vitro; [5]): 30.5 µM

Q: What does the source list for `CNC(=O)c1ccc(-n2c(NC(C)(C)C)nc3c(c2=O)C[C@@H](C)N(C(=O)c2ccc(Cl)c(C(F)(F)F)c2)C3)c(Cl)c1` (single isomer, unassigned) [Compound C677b]?
A: EC50 [1, 4]: 0.02 µM; CC50 at 3 days (in vitro; [5]): 24 µM

Q: Which EC50 [1, 2] does the source give for `CC(C)Nc1nc2c(c(=O)n1-c1ccc(S(C)(=O)=O)cc1)CCN(C(=O)c1ccc3ncn(C)c3c1)C2` [Compound C363] here?
A: > 50 µM

Q: And the CC50 at 3 days (in vitro; [3])?
A: > 50 µM

Q: What does the source list for `CC(C)Nc1nc2c(c(=O)n1-c1ccc(N3CCOCC3)cc1)C[C@@H](C)N(C(=O)c1ccc(Cl)c(Cl)c1)C2` [Compound C218, (6R)-7-(3,4-dichlorobenzoyl)-6-methyl-3-[4-(morpholin-4-yl)phenyl]-2-[(propan-2-yl)amino]-5,6,7,8-tetrahydropyrido[3,4-d]pyrimidin-4(3H)-one]?
A: EC50 [1, 2]: 0.16 µM; CC50 at 3 days (in vitro; [3]): > 50 µM

Q: Which EC50 [1, 2] does the source give for `CC(C)Nc1nc2c(c(=O)n1CCNS(C)(=O)=O)CCN(C(=O)c1ccc(Cl)c(Cl)c1)C2` [Compound C112, N-{2-[7-(3,4-dichlorobenzoyl)-4-oxo-2-[(propan-2-yl)amino]-5,6,7,8-tetrahydropyrido[3,4-d]pyrimidin-3(4H)-yl]ethyl}methanesulfonamide] here?
A: 11.5 µM

Q: And the CC50 at 3 days (in vitro; [3])?
A: > 50 µM

Q: For `CNC(=O)c1ccc(-n2c(NC(C)C)nc3c(c2=O)C[C@@H](C)N(C(=O)c2cc(F)cc(F)c2)C3)cc1` [Compound C502], which EC50 [1, 4] is on record?
A: 8.95 µM

Q: What about the CC50 at 3 days (in vitro; [5]) of the same compound?
A: > 50 µM

Q: Which results are given for `CC(C)Nc1nc2c(c(=O)n1-c1ccc(S(C)(=O)=O)cc1)CCN(C(=O)c1[nH]c3ccccc3c1Cl)C2` [Compound C133, 7-(3-chloro-1H-indole-2-carbonyl)-3-[4-(methanesulfonyl)phenyl]-2-[(propan-2-yl)amino]-5,6,7,8-tetrahydropyrido[3,4-d]pyrimidin-4(3H)-one]?
A: EC50 [1, 2]: 1.94 µM; CC50 at 3 days (in vitro; [3]): 28.3 µM

Q: For `CC(C)Nc1nc2c(c(=O)n1-c1ccc(-c3cccc(N4CCOCC4)n3)cc1)CCN(C(=O)c1ccc(Cl)c(Cl)c1)C2` [Compound C173, 7-(3,4-dichlorobenzoyl)-3-{4-[6-(morpholin-4-yl)pyridin-2-yl]phenyl}-2-[(propan-2-yl)amino]-5,6,7,8-tetrahydropyrido[3,4-d]pyrimidin-4(3H)-one], which EC50 [1, 2] is on record?
A: 0.88 µM

Q: And the CC50 at 3 days (in vitro; [3])?
A: 7.8 µM

Q: With `CC(C)Nc1nc2c(c(=O)n1-c1ccc(C(=O)NC3COC3)cc1)C[C@@H](C)N(C(=O)c1ccc(Cl)c(Cl)c1)C2` [Compound C209, 4-[(6R)-7-(3,4-dichlorobenzoyl)-6-methyl-4-oxo-2-[(propan-2-yl)amino]-5,6,7,8-tetrahydropyrido[3,4-d]pyrimidin-3(4H)-yl]-N-(oxetan-3-yl)benzamide] as the compound, how does the EC50 [1, 2] read?
A: 0.82 µM

Q: And the CC50 at 3 days (in vitro; [3])?
A: > 50 µM

Q: For `CC(C)Nc1nc2c(c(=O)n1-c1ccnnc1)CCN(C(=O)c1ccc(Cl)c(Cl)c1)C2` [Compound C134, 7-(3,4-dichlorobenzoyl)-2-[(propan-2-yl)amino]-3-(pyridazin-4-yl)-5,6,7,8-tetrahydropyrido[3,4-d]pyrimidin-4(3H)-one], which EC50 [1, 2] is on record?
A: 4.39 µM

Q: What about the CC50 at 3 days (in vitro; [3]) of the same compound?
A: > 50 µM

Q: With `CC(C)Nc1nc2c(c(=O)n1-c1ccc(-c3nccs3)cc1)C[C@@H](C)N(C(=O)c1ccc(Cl)c(Cl)c1)C2` [Compound C240, (6R)-7-(3,4-dichlorobenzoyl)-6-methyl-2-[(propan-2-yl)amino]-3-[4-(1,3-thiazol-2-yl)phenyl]-5,6,7,8-tetrahydropyrido[3,4-d]pyrimidin-4(3H)-one] as the compound, how does the EC50 [1, 2] read?
A: 0.13 µM

Q: And the CC50 at 3 days (in vitro; [3])?
A: > 50 µM

Q: For `CC(C)Nc1nc2c(c(=O)n1-c1ccc(S(C)(=O)=O)cc1)CCN(C(=O)c1nc3ccccc3[nH]1)C2` [Compound C358], which EC50 [1, 2] is on record?
A: > 50 µM

Q: What about the CC50 at 3 days (in vitro; [3]) of the same compound?
A: > 50 µM

Q: Which results are given for `COc1ccc(CNc2nc3c(c(=O)n2-c2ccc(S(C)(=O)=O)cc2)C[C@@H](C)N(C(=O)c2ccc(Cl)c(Cl)c2)C3)cc1` [Compound C145, (6R)-7-(3,4-dichlorobenzoyl)-3-[4-(methanesulfonyl)phenyl]-2-{[(4-methoxyphenyl)methyl]amino}-6-methyl-5,6,7,8-tetrahydropyrido[3,4-d]pyrimidin-4(3H)-one]?
A: EC50 [1, 2]: 0.31 µM; CC50 at 3 days (in vitro; [3]): > 42 µM

Q: Which EC50 [1, 2] does the source give for `CC(C)Nc1nc2c(c(=O)n1-c1ccc3c(c1)C(=O)NC3)C[C@@H](C)N(C(=O)c1ccc(Cl)c(Cl)c1)C2` [Compound C229, (6R)-7-(3,4-dichlorobenzoyl)-6-methyl-3-(3-oxo-2,3-dihydro-1H-isoindol-5-yl)-2-[(propan-2-yl)amino]-5,6,7,8-tetrahydropyrido[3,4-d]pyrimidin-4(3H)-one] here?
A: 0.11 µM

Q: What about the CC50 at 3 days (in vitro; [3]) of the same compound?
A: > 50 µM

Q: Which results are given for `CNc1noc2ccc(-n3c(NC(C)C)nc4c(c3=O)C[C@@H](C)N(C(=O)c3ccc(Cl)c(Cl)c3)C4)cc12` [Compound C263, (6R)-7-(3,4-dichlorobenzoyl)-6-methyl-3-[3-(methylamino)-1,2-benzoxazol-5-yl]-2-[(propan-2-yl)amino]-5,6,7,8-tetrahydropyrido[3,4-d]pyrimidin-4(3H)-one]?
A: EC50 [1, 2]: 0.17 µM; CC50 at 3 days (in vitro; [3]): > 50 µM

Q: With `CNC(=O)c1ccc(-n2c(NC(C)C)nc3c(c2=O)C[C@@H](C)N(C(=O)c2ccc(Cl)cc2OC)C3)cc1` [Compound C593] as the compound, how does the EC50 [1, 4] read?
A: > 25 µM

Q: And the CC50 at 3 days (in vitro; [5])?
A: > 50 µM

Q: Which EC50 [1, 2] does the source give for `CC(C)Nc1nc2c(c(=O)n1-c1ccc(C(=O)NC3CC3)cc1)C[C@@H](C)N(C(=O)c1ccc(Cl)c(Cl)c1)C2` [Compound C167, N-cyclopropyl-4-[(6R)-7-(3,4-dichlorobenzoyl)-6-methyl-4-oxo-2-[(propan-2-yl)amino]-5,6,7,8-tetrahydropyrido[3,4-d]pyrimidin-3(4H)-yl]benzamide] here?
A: 0.06 µM

Q: What about the CC50 at 3 days (in vitro; [3]) of the same compound?
A: > 50 µM
